Results: patent US8859569B2, “Substituted annellated pyrimidines and use thereof” (Bayer Pharma Aktiengesellschaft, priority 2011, dated 2014)
pIC50: −log10 of the molar value.

Legend:
[1] = biological target: T1, human phosphodiesterase 5 (PDE-5) (Homo sapiens, UniProt O76074); assay: Inhibition of human phosphodiesterase 5 (PDE-5), SPA assay; format: biochemical; details: PDE-5 preparation from human platelets, [8-3H]cGMP substrate
T1 construct: PDE-5 preparations are obtained from human platelets by lysis; from tissue; host or cells: human platelets
Description: B-6. Inhibition of Human Phosphodiesterase 5 (PDE-5)
PDE-5 preparations are obtained from human platelets by lysis (Microfluidizer®, 800 bar, 3 passages), followed by centrifugation (75000 g, 60 min, 4° C.) and ion-exchange chromatography of the supernatant on a Mono Q 10/10 column (linear sodium chloride gradient, elution with a 0.2-0.3M solution of sodium chloride in buffer (20 mM Hepes pH 7.2, 2 mM magnesium chloride). Fractions that have PDE-5 activity are combined (PDE-5 preparation) and stored at −80° C.
For determining their in-vitro action on human PDE-5, the test substances are dissolved in 100% DMSO and serial dilutions are prepared. Typically, dilution series (1:3) from 200 μM to 0.091 μM are prepared (resultant final concentrations in the test: 4 μM to 0.0018 μM). In each case 2 μL of the diluted solutions of the substance are put in the wells of microtitre plates (Isoplate-96/200W; Perkin-Elmer). Then 50 μL of a dilution of the PDE-5 preparation described above is added. The dilution of the PDE-5 preparation is selected so that during subsequent incubation less than 70% of the substrate is reacted (typical dilution: 1:100; dilution buffer: 50 mM Tris/hydrochloric acid pH 7.5, 8.3 mM magnesium chloride, 1.7 mM EDTA, 0.2% BSA). The substrate [8-^3H]cyclic guanosine-3′,5′-monophosphate (1 μCi/μL; Perkin-Elmer) is diluted 1:2000 with assay buffer (50 mM Tris/hydrochloric acid pH 7.5, 8.3 mM magnesium chloride, 1.7 mM EDTA) to a concentration of 0.0005 μCi/μL. The enzyme reaction is finally started by adding 50 μL (0.025 μCi) of the diluted substrate. The test preparations are incubated for 60 min at room temperature and the reaction is stopped by adding 25 μL of a suspension of 18 mg/mL of Yttrium Scintillation Proximity Beads in water (phosphodiesterase beads for SPA assays, RPNQ 0150, Perkin-Elmer). The microtitre plates are sealed with film and left to stand for 60 min at room temperature. Then the plates are measured for 30 s per well in a Microbeta scintillation counter (Perkin-Elmer). IC50 values are determined on the basis of the graphs plotted of the substance concentration versus the percentage PDE-5 inhibition.

[2] = biological target: T2, recombinant guanylate cyclase reporter cell line (Rattus norvegicus, UniProt P19686+P20595); assay: Action on recombinant guanylate cyclase reporter cell line; format: cell-based
T2 construct: expressed in transfected cells
T2 sequence (P20595 1-619): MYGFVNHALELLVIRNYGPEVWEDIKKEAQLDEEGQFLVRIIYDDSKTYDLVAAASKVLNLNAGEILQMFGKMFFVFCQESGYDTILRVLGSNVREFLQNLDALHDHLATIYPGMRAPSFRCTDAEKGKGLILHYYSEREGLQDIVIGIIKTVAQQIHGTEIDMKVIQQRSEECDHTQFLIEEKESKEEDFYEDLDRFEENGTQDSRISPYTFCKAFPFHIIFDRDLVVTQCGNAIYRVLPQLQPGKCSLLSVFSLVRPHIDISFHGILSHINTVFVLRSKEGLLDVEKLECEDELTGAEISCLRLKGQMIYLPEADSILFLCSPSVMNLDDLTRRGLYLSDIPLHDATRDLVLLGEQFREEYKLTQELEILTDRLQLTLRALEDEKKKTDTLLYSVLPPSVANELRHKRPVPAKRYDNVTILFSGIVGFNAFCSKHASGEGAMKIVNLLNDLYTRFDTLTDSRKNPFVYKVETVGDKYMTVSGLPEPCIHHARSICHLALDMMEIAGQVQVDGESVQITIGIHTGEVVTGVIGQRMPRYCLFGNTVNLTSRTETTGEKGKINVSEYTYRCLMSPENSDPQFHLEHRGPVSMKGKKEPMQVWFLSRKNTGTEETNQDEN
T2 sequence (P19686 1-690): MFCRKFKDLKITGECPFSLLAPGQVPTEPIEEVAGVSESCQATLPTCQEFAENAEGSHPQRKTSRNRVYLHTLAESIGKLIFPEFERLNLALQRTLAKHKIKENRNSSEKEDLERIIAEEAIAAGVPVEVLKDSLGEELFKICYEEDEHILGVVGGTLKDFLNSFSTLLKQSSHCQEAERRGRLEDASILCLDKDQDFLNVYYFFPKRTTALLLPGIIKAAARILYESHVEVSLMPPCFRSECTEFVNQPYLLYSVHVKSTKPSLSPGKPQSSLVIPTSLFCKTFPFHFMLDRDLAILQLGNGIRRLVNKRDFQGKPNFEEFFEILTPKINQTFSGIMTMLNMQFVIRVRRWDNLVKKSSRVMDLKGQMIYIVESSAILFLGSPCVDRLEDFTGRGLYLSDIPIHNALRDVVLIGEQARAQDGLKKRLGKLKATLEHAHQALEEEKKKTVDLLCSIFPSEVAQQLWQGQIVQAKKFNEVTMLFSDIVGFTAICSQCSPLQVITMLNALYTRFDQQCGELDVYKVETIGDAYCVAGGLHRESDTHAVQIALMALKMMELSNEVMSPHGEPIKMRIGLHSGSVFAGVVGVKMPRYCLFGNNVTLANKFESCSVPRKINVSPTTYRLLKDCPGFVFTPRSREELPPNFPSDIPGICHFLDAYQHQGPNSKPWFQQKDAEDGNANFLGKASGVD
Description: B-2. Action on Recombinant Guanylate Cyclase Reporter Cell Line
The cellular action of the compounds according to the invention is determined on a recombinant guanylate cyclase reporter cell line, as described in F. Wunder et al., Anal. Biochem. 339, 104-112 (2005).

## CC1(C)C(=O)Nc2nc(-c3nn(Cc4ccccc4F)c4ncccc34)nc(NCCn3ccnn3)c21 [Example 47, 2-[1-(2-fluorobenzyl)-1H-pyrazolo[3,4-b]pyridin-3-yl]-5,5-dimethyl-4-{[2-(1H-1,2,3-triazol-1-yl)ethyl]amino}-5,7-dihydro-6H-pyrrolo[2,3-d]pyrimidin-6-one]
[1]
  pIC50: 7.08
[2]
  MEC (minimal effective concentration): 0.1 μm

## Cc1cc(Nc2nc(-c3nn(Cc4ccccc4F)c4ncccc34)nc3c2C(C)(C)C(=O)N3)nn1C [Example 50, 4-[(1,5-dimethyl-1H-pyrazol-3-yl)amino]-2-[1-(2-fluorobenzyl)-1H-pyrazolo[3,4-b]pyridin-3-yl]-5,5-dimethyl-5,7-dihydro-6H-pyrrolo[2,3-d]pyrimidin-6-one]
[1]
  pIC50: 7.40
[2]
  MEC (minimal effective concentration): 0.1 μm

## CC1(C)C(=O)Nc2nc(-c3nn(Cc4ccccc4F)c4ncccc34)nc(NC3CCOC3)c21 (racemic) [Example 49, 2-[1-(2-fluorobenzyl)-1H-pyrazolo[3,4-b]pyridin-3-yl]-5,5-dimethyl-4-(tetrahydrofuran-3-ylamino)-5,7-dihydro-6H-pyrrolo[2,3-d]pyrimidin-6-one]
[2]
  MEC (minimal effective concentration): 0.3 μm

## CC1(C)C(=O)Nc2nc(-c3nn(Cc4ccccc4F)c4ncccc34)nc(NC[C@@H]3CCOC3)c21 [Example 45, 2-[1-(2-fluorobenzyl)-1H-pyrazolo[3,4-b]pyridin-3-yl]-5,5-dimethyl-4-[(tetrahydrofuran-3-ylmethyl)amino]-5,7-dihydro-6H-pyrrolo[2,3-d]pyrimidin-6-one]
[1]
  pIC50: 7.11
[2]
  MEC (minimal effective concentration): 0.1 μm

## COCCNc1nc(-c2nn(Cc3ccccc3F)c3ncccc23)nc2c1C(C)(C)C(=O)N2 [Example 56, 2-[1-(2-fluorobenzyl)-1H-pyrazolo[3,4-b]pyridin-3-yl]-4-[(2-methoxyethyl)amino]-5,5-dimethyl-5,7-dihydro-6H-pyrrolo[2,3-d]pyrimidin-6-one]
[1]
  pIC50: 7.47
[2]
  MEC (minimal effective concentration): 0.03 μm

## COC1CN(c2nc(-c3nn(Cc4ccccc4F)c4ncccc34)nc3c2C(C)(C)C(=O)N3)C1 [Example 53, 2-[1-(2-fluorobenzyl)-1H-pyrazolo[3,4-b]pyridin-3-yl]-4-(3-methoxyazetidin-1-yl)-5,5-dimethyl-5,7-dihydro-6H-pyrrolo[2,3-d]pyrimidin-6-one]
[1]
  pIC50: 6.82
[2]
  MEC (minimal effective concentration): 3.0 μm

## CN1CCN(c2nc(-c3nn(Cc4ccccc4F)c4ncccc34)nc3c2C(C)(C)C(=O)N3)CC1 [Example 70, 2-[1-(2-fluorobenzyl)-1H-pyrazolo[3,4-b]pyridin-3-yl]-5,5-dimethyl-4-(4-methylpiperazin-1-yl)-5,7-dihydro-6H-pyrrolo[2,3-d]pyrimidin-6-one]
[1]
  pIC50: 7.10
[2]
  MEC (minimal effective concentration): 0.03 μm

## CC1(C)C(=O)Nc2nc(-c3nn(Cc4ccccc4F)c4ncccc34)nc(NCc3ccc(F)cc3)c21 [Example 77, 4-[(4-fluorobenzyl)amino]-2-[1-(2-fluorobenzyl)-1H-pyrazolo[3,4-b]pyridin-3-yl]-5,5-dimethyl-5,7-dihydro-6H-pyrrolo[2,3-d]pyrimidin-6-one]
[2]
  MEC (minimal effective concentration): 0.1 μm

## Cn1ccc(CNc2nc(-c3nn(Cc4ccccc4F)c4ncccc34)nc3c2C(C)(C)C(=O)N3)n1 [Example 48, 2-[1-(2-fluorobenzyl)-1H-pyrazolo[3,4-b]pyridin-3-yl]-5,5-dimethyl-4-{[(1-methyl-1H-pyrazol-3-yl)methyl]amino}-5,7-dihydro-6H-pyrrolo[2,3-d]pyrimidin-6-one]
[1]
  pIC50: 7.27
[2]
  MEC (minimal effective concentration): 0.1 μm

## CC1(C)C(=O)Nc2nc(-c3nn(Cc4ccccc4F)c4ncccc34)nc(NCC3CCCC3)c21 [Example 80, 4-[(cyclopentylmethyl)amino]-2-[1-(2-fluorobenzyl)-1H-pyrazolo[3,4-b]pyridin-3-yl]-5,5-dimethyl-5,7-dihydro-6H-pyrrolo[2,3-d]pyrimidin-6-one]
[2]
  MEC (minimal effective concentration): 0.03 μm

## C[C@H](Nc1nc(-c2nn(Cc3ccccc3F)c3ncccc23)nc2c1C(C)(C)C(=O)N2)C(N)=O [Example 79, N2-{2-[1-(2-fluorobenzyl)-1H-pyrazolo[3,4-b]pyridin-3-yl]-5,5-dimethyl-6-oxo-6,7-dihydro-5H-pyrrolo[2,3-d]pyrimidin-4-yl}-L-alaninamide]
[2]
  MEC (minimal effective concentration): 0.1 μm

## CC1(C)C(=O)Nc2nc(-c3nn(Cc4ccccc4F)c4ncccc34)nc(N3CCNC(=O)C3)c21 [Example 82, 2-[1-(2-fluorobenzyl)-1H-pyrazolo[3,4-b]pyridin-3-yl]-5,5-dimethyl-4-(3-oxopiperazin-1-yl)-5,7-dihydro-6H-pyrrolo[2,3-d]pyrimidin-6-one]
[2]
  MEC (minimal effective concentration): 0.1 μm

## CC1(CNc2nc(-c3nn(Cc4ccccc4F)c4ncccc34)nc3c2C(C)(C)C(=O)N3)COC1 [Example 67, 2-[1-(2-fluorobenzyl)-1H-pyrazolo[3,4-b]pyridin-3-yl]-5,5-dimethyl-4-{[(3-methyloxetan-3-yl)methyl]amino}-5,7-dihydro-6H-pyrrolo[2,3-d]pyrimidin-6-one]
[2]
  MEC (minimal effective concentration): 0.03 μm

## CCOC(=O)C1(C)C(=O)Nc2nc(-c3nn(Cc4ccccc4F)c4ncccc34)nc(O)c21 (centres unmarked) [Example 101, Ethyl-2-[1-(2-fluorobenzyl)-1H-pyrazolo[3,4-b]pyridin-3-yl]-4-hydroxy-5-methyl-6-oxo-6,7-dihydro-5H-pyrrolo[2,3-d]pyrimidine-5-carboxylate]
[1]
  pIC50: 6.06

## CC1(C)C(=O)Nc2nc(-c3nn(Cc4ccccc4F)c4ncccc34)nc(N3CCCCC3)c21 [Example 54, 2-[1-(2-fluorobenzyl)-1H-pyrazolo[3,4-b]pyridin-3-yl]-5,5-dimethyl-4-(piperidin-1-yl)-5,7-dihydro-6H-pyrrolo[2,3-d]pyrimidin-6-one]
[2]
  MEC (minimal effective concentration): 0.03 μm

## C[C@@H](O)CNc1nc(-c2nn(Cc3ccccc3F)c3ncccc23)nc2c1C(C)(C)C(=O)N2 [Example 57, 2-[1-(2-fluorobenzyl)-1H-pyrazolo[3,4-b]pyridin-3-yl]-4-[(2-hydroxypropyl)amino]-5,5-dimethyl-5,7-dihydro-6H-pyrrolo[2,3-d]pyrimidin-6-one]
[1]
  pIC50: 7.80
